Laboratory results reported in ChEMBL document CHEMBL1126354, “Structural analysis of 2-aryl-1,3-dione compounds as inhibitors of 5-lipoxygenase” (Bioorg Med Chem Lett, 1992).

target: T1, Polyunsaturated fatty acid 5-lipoxygenase (Rattus norvegicus) (UniProt P12527); experiment: The compound was evaluated in vitro for inhibition of 5-lipoxygenase activity in RBL-1 cells at 20 uM; format: cell-based
T1 sequence (whole entry): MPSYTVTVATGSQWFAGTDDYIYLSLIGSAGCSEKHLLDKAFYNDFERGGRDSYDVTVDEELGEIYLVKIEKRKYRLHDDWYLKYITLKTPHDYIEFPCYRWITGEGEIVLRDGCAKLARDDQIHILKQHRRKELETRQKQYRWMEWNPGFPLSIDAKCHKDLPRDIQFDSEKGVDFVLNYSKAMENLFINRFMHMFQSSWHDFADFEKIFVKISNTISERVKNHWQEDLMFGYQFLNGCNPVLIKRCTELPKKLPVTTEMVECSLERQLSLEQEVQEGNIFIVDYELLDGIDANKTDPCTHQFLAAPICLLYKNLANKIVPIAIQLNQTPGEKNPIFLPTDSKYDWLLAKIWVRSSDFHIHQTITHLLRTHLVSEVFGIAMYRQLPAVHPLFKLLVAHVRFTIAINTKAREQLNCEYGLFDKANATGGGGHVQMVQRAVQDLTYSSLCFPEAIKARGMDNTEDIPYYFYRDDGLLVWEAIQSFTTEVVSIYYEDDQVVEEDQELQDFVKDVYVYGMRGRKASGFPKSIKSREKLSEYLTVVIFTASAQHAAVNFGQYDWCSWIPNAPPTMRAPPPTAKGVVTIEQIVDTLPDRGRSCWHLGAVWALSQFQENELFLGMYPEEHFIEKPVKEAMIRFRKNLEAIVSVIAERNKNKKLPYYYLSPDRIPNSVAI

| SMILES | inhibition [%] |
| --- | --- |
| O=C1c2ccccc2-c2ccccc2C(=O)C1c1ccccc1 | 50 |

target: T2, Polyunsaturated fatty acid 5-lipoxygenase (Rattus norvegicus, UniProt P12527); experiment: In vitro inhibition of 5-lipoxygenase activity in RBL-1 cells.; format: cell-based
T2 sequence (P12527 whole entry): T1 sequence (whole entry)

| SMILES | IC50 [µM] |
| --- | --- |
| O=C1c2ccccc2C(=O)C1(F)c1ccc2ccccc2c1 | 2 |
| COc1ccc(C2C(=O)c3ccccc3C2=O)cc1 [ANISINDIONE] | 9.1 |
| CCCCc1ccc(C2C(=O)CCCCCC2=O)cc1 | 12 |
| O=C1CCCCC(=O)C1c1ccc2c(c1)OCO2 | 25 |
| O=C1c2ccccc2C(=O)C1c1ccc2ccccc2c1 | 3.2 |
| O=C1c2ccccc2C(=O)C1c1ccc(Cl)cc1 [CLORINDIONE] | 5 |
| CN(C)c1ccc(C2C(=O)c3ccccc3C2=O)cc1 | 4.5 |
| CSC1(c2ccccc2)C(=O)c2ccccc2C1=O | 15 |
| CCCCc1ccc(C2C(=O)c3ccccc3C2=O)cc1 | 1.7 |
| O=C1CCCCC(=O)C1c1ccccc1 | 41 |
| O=C1c2ccccc2C(=O)C1c1ccccc1 [PHENINDIONE] | 15 |
| CSc1ccc(C2C(=O)c3ccccc3C2=O)cc1 | 2.7 |
| O=C1c2ccccc2C(=O)C1(F)c1ccccc1 | 1.7 |
| O=C1c2ccccc2C(=O)C1(Sc1ccccc1)c1ccccc1 | 4.8 |
| O=C1c2ccc(Br)cc2C(=O)C1(F)c1ccccc1 (stereo not drawn) | 2.3 |
| CC(C)(C)c1cc(C2C(=O)c3ccccc3C2=O)cc(C(C)(C)C)c1 | 2.8 |
| O=C1c2ccccc2C(=O)C1c1ccc(F)cc1 [FLUINDIONE] | 9.6 |

target: T2, Polyunsaturated fatty acid 5-lipoxygenase; experiment: The compound was evaluated in vitro for inhibition of 5-lipoxygenase activity in RBL-1 cells; No significant inhibitory activity up to 30 uM; format: cell-based

| SMILES | IC50 |
| --- | --- |
| O=C(O)c1ccc(C2C(=O)c3ccccc3C2=O)cc1 | Not Active |

target: T2, Polyunsaturated fatty acid 5-lipoxygenase; experiment: The compound was evaluated in vitro for inhibition of 5-lipoxygenase activity in RBL-1 cells.; format: cell-based

| SMILES | IC50 [µM] |
| --- | --- |
| O=C1c2ccccc2C(=O)C1C1C(=O)c2ccccc2C1=O | 28 |

target: T2, Polyunsaturated fatty acid 5-lipoxygenase; experiment: In vitro for inhibition of 5-lipoxygenase activity in RBL-1 cells.; format: cell-based

| SMILES | IC50 |
| --- | --- |
| O=C1c2ccccc2C(=O)C1(c1ccccc1)C1(c2ccccc2)C(=O)c2ccccc2C1=O | Not Active |
| O=C1CC(=O)c2ccccc21 | Not Active |
| O=C(c1ccccc1)C(C(=O)c1ccccc1)c1ccccc1 | Not Active |
| O=C1c2ccccc2C(=O)C1[N+](=O)[O-] | Not Active |
| O=C1CCC(=O)C1c1ccccc1 | Not Active |
| O=C1c2ccccc2[C@@H](O)[C@H]1c1ccccc1 | Not Active |
| C=CCC1C(=O)c2ccccc2C1=O | Not Active |
| O=C1C(c2ccccc2)C(=O)C2CC=CCC12 (stereo not drawn) | Not Active |
| COc1ccc(C=C2C(=O)c3ccccc3C2=O)cc1 | Not Active |
| O=C1C(=Cc2ccccc2)C(=O)c2ccccc21 | Not Active |
| COC1=C(c2ccccc2)C(=O)c2ccccc21 | Not Active |
| O=C1c2cccc3cccc(c23)C(=O)C1c1ccccc1 | Not Active |
| O=C1c2ccccc2C(=O)N1c1ccccc1 [N-PHENYL-PHTHALIMIDE] | Not Active |
| O=C1CCCC(=O)C1c1ccccc1 | Not Active |
| O=C1c2ccccc2[C@H](O)[C@H]1c1ccccc1 | Not Active |

target: T1, Polyunsaturated fatty acid 5-lipoxygenase (Rattus norvegicus); experiment: The compound was evaluated in vitro for inhibition of 5-lipoxygenase activity in RBL-1 cells at 100 uM; format: cell-based

| SMILES | inhibition [%] |
| --- | --- |
| O=C1CCCCCC(=O)C1c1ccccc1 | 45 |

target: T1, Polyunsaturated fatty acid 5-lipoxygenase (Rattus norvegicus); experiment: The compound was evaluated in vitro for inhibition of 5-lipoxygenase activity in RBL-1 cells at 30 uM; format: cell-based

| SMILES | inhibition [%] |
| --- | --- |
| O=C1C(c2ccccc2)=C(c2ccccc2)C(=O)C1c1ccccc1 | 45 |
| O=C1c2ccccc2C(=O)C1c1cccc2ccccc12 | 14 |
